# Source: patent US20230151432A1, “KIF18A INHIBITORS FOR TREATMENT OF NEOPLASTIC DISEASES” (AMGEN INC., priority 2020, published 2023)
# What was measured:
# Type in all cases: cell-based, human
# BT-549 TNBC cells = test: Western blot and cGAS/γH2A.X immunostaining (Example 8); conditions: 0.2 μM, 48 hours
# Protocol: In order to analyze the effects on mitosis, BT-549 TNBC cells were seeded into 6-well plates at a density of 100,000 per well in 3 replicate wells in 4 mL of complete growth media. The next day, cells were treated with DMSO, KIF18A inhibitor #1 (Compound C11, 0.5 μM), or KIF18A inhibitor #2 (Compound C9, 0.01 μM) in 4 mL of complete media at a final DMSO concentration of 0.5%. After 48 hours, cell lysates were prepared for each treatment group (combined media and cells from 3 wells) using Minute™ Total Protein Extraction kit (SD-001, Invent Biotechnologies) lysis conditions according to manufactures protocol, supplemented with protease inhibitor cocktail (cOmplete™, Roche) and phospatase inhibitors (PhosphoStop, Roche). Primary antibodies included rabbit anti-p-Histone H3 (serine-10) (06-570, Millipore, 1: 2000), mouse anti-γH2A.X (serine-139) (05-636, Millipore, 1: 2000), mouse anti-cleaved-PARP (cl-PARP) (#51-900017, BD Pharmingen, 1:500), mouse anti-BubR1 (612503, BD Pharmingen, 1:5000), mouse anti-total HEC1 (ab3613, ABCAM, 1: 1000), rabbit anti-pHEC1(serine-55) (GTX70017, Genetex, 1: 500), and rabbit anti-GAPDH (2118, Cell Signaling, 1:10,000).
# Also, cGAS and γH2A.X (serine-139) immunostaining in BT-549 TNBC cells was carried out. […] Wide-field images were captured using 40×objective on upright Nikon Eclipse NI-E epi-fluorescence microscope running Elements software.
# OVCAR-3 HGSOC cells = test: Time course Western blot of cell cycle and apoptosis proteins; conditions: 0.5 μM; release from double thymidine block, 4-24 hours
# Protocol: OVCAR-3 HGSOC cells were seeded at a density of 1.4 million cells into 100 mm tissue culture plates in 10 mL of complete growth media. The next day, complete growth media containing 2 mM thymidine was added to the cells and incubated for 16 hours. Cells were washed thrice in 1×PBS before adding complete growth media for 8 hours, followed by and second 2 mM thymidine block for 16 hours. The double thymidine block arrested cells in G1/S phase of the cell cycle. Cells were release from G1/S block by first washing thrice in 1×PBS before adding complete growth media with DMSO or KIF18A inhibitor (Compound C11 at 0.5 μM). Cell lysates were prepared at multiple time points (4, 8, 10, 12, 14, and 24 hours). As controls, asynchronous growing OVCAR-3 cells were treated DMSO or KIF18A inhibitor (Compound C11 at 0.5 μM) and lysates were prepared at 24 hours. Primary antibodies included mouse anti-cleaved-PARP (cl-PARP) (51-900017, BD Pharmingen, 1:500), mouse anti-cyclin B1 (554179, BD Pharmingen, 1:500), rabbit anti-Mcl-1 (5453, Cell Signaling, 1:500), mouse anti-Cyclin E1 (MS-870-P, HE12, NeoMarkers, 1:2000), mouse anti-BubR1 (612503, BD Pharmingen, 1:5000), and rabbit anti-KIF18A (HPA039484, Simga, 1:2000), and mouse anti-β-actin (A5441, Simga, 1:5000).
# CAL-51 TNBC cells = test: Centrosome immunofluorescence imaging and cl-PARP Western blotting (Example 6); conditions: 0.5 μM; 24 h imaging, 48 h Western; TP53 wild-type
# Protocol: (§1) To analyze the effects of a KIF18A inhibitor on mitotic centrosome/chromosome features and apoptosis of cancer cells, centrosome features in CAL-51 and MDA-MB-157 TNBC cells were analyzed by an immunofluorescence imaging analysis. Cells were seeded into Cell Carrier Ultra 96-well Polystyrene plate (PerkinElmer) in 200 μL of complete media and grown. […] Cells were washed twice with 200 μL Wash Buffer (1×PBS/0.5% BSA, Rockland Immunochemicals). Cells are stained with 100 μL anti-CETN3 mouse antibody (1:2000, H00001070-M01, Abnova) and anti-pericentrin rabbit antibody (1:2000, ab4448-100, Abcam) in 200 μL of Wash Buffer and incubated overnight at 4° C. Cells were washed twice with 200 μL Wash Buffer. Cells were stained with 100 μL secondary antibodies [goat anti-mouse IgG-alexa-488 (1:1000, A1 1029, Invitrogen) and goat anti-rabbit IgG-alexa-647 (1:1000, A21244, Invitrogen) in Wash Buffer for 2 hours at room temperature protected for light. Cells were washed twice followed by addition of 100 μL Wash Buffer containing Hoechst 33342 DNA dye (2 μg/mL). Cells were imaged on a PerkinElmer Ultraview Vox dual spinning disc confocal microscope using a 60× oil immersion objective with laser excitation wavelengths of 405 nm (Hoechst), 488 nm (alexa-488), and 647 nm (alexa-647). Representative maximal projection images were collected for mitotic objects from each treatment well. […]
# MDA-MB-157 TNBC cells = test: as above; conditions: 0.5 μM; 24 h imaging, 48 h Western; TP53 mutant, CCNE1 amplified
# Protocol: as §1
Structure (SMILES),cGAS and γH2A.X staining of cytoplasmic micronuclei (BT-549 TNBC cells),KIF18A and BubR1 protein levels (OVCAR-3 HGSOC cells),"cyclin B1, cl-PARP, Mcl-1 and cyclin E1 protein levels (OVCAR-3 HGSOC cells)",mitotic cell centrosome features and apoptosis (CAL-51 TNBC cells),mitotic cell centrosome features and apoptosis (MDA-MB-157 TNBC cells)
"CC(C)(C)NS(=O)(=O)c1cccc(NC(=O)c2ccc(S(=O)(=O)NC(C)(C)C)cc2N2CCC3(CC2)CC3)c1 [Compound C9, 4-(N-(tert-butyl)sulfamoyl)-N-(3-(N-(tert-butyl)sulfamoyl)phenyl)-2-(6-azaspiro[2.5]octan-6-yl)benzamide]",increase in DNA damage and cGAS positive micronuclei,,,,
"CC(C)(CO)Nc1ccc(C(=O)Nc2cccc(S(=O)(=O)C3CCCC3)c2)c(N2CCC3(CC2)CC3)n1 [Compound C11, N-(3-(cyclopentylsulfonyl)phenyl)-6-((1-hydroxy-2-methylpropan-2-yl)amino)-2-(6-azaspiro[2.5]octan-6-yl)nicotinamide]",,increase in KIF18A and BubR1 protein levels,increase in cyclin B1 and cl-PARP protein levels and a decrease in Mcl-1 and cyclin E1 levels,no changes in centrosome features or apoptosis,selectively induced alterations in mitotic cell centrosome features
